Data taken from the supplement of paper PMC10307832.

Key:
Assay in all cases: relative viability (nuclei count vs DMSO), 5 days (fraction); higher = more cells survive
[1] = compound: CCN(CC)CCCCNc1ncc2cc(-c3cc(OC)cc(OC)c3)c(NC(=O)NC(C)(C)C)nc2n1
How it was run: (§1)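 Cells of lung cancer lines were placed in 1536-well plates and kept overnight at 37 °C. Pinning then delivered five library-drug doses (not always all listed), spaced by √10, onto plates anchored with vehicle, and the cells were left 5 days without changing medium. One step fixed, permeabilised and stained them with Hoechst, and MetaXpress counted nuclei in 4× images. Viability, as a median over plates, is treated-well nuclei divided by vehicle-well nuclei, with acceptance only at control CV below 25% and at least one doubling.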

Zibotentan = compound: COc1nc(C)cnc1NS(=O)(=O)c1cccnc1-c1ccc(-c2nnco2)cc1 [Zibotentan]
How it was run: as §1

[2] = compound: O=c1cc(-c2cccc3c2Sc2ccccc2S3)oc(N2CCOCC2)c1
How it was run: as §1

[3] = compound: C1COCCN1C2=CC(=O)C3=C(O2)C(=CC=C3)C4=CC=CC5=C4SC6=CC=CC=C56
How it was run: as §1

PRIMA-1MET = compound: COCC1(CO)C(=O)C2CCN1CC2 [PRIMA-1MET]
How it was run: as §1

| Cell Line | relative viability ([1]; 0.01 µM) | relative viability ([1]; 0.03162 µM) | relative viability ([1]; 0.1 µM) | relative viability ([1]; 0.3162 µM) | relative viability ([1]; 1 µM) | relative viability (Zibotentan; 0.08 µM) | relative viability (Zibotentan; 0.253 µM) | relative viability (Zibotentan; 0.8 µM) | relative viability (Zibotentan; 2.53 µM) | relative viability ([2]; 0.08 µM) | relative viability ([2]; 0.253 µM) | relative viability ([2]; 0.8 µM) | relative viability ([2]; 2.53 µM) | relative viability ([2]; 8 µM) | relative viability ([3]; 0.01 µM) | relative viability ([3]; 0.03162 µM) | relative viability ([3]; 0.1 µM) | relative viability ([3]; 0.3162 µM) | relative viability ([3]; 1 µM) | relative viability (PRIMA-1MET; 0.2 µM) | relative viability (PRIMA-1MET; 0.6325 µM) | relative viability (PRIMA-1MET; 2 µM) | relative viability (PRIMA-1MET; 6.325 µM) | relative viability (PRIMA-1MET; 20 µM) |
| --- | --- | --- | --- | --- | --- | --- | --- | --- | --- | --- | --- | --- | --- | --- | --- | --- | --- | --- | --- | --- | --- | --- | --- | --- |
| LU99A | 0.888 | 0.972 | 0.997 | 1.01 | 0.899 | 1.06 | 0.912 | 0.938 | 0.89 | 0.901 | 0.935 | 1.01 | 1.02 | 0.997 | 0.957 | 1.03 | 1.02 | 0.888 | 0.997 | 0.939 | 0.852 | 0.822 | 0.935 | 0.508 |
| LXF-289 | 1.01 | 1.02 | 1.06 | 1.02 | 0.844 | 1.02 | 1.01 | 1.02 | 1.01 | 1.01 | 1.03 | 1.02 | 0.99 | 1.02 | 1.05 | 1.01 | 1.03 | 1.01 | 1.07 | 1.08 | 0.983 | 1.16 | 1.04 | 0.942 |
| NCI-H23 | 0.923 | 1 | 0.957 | 1.08 | 0.977 | 1.05 | 0.91 | 0.89 | 1.1 | 0.776 | 1.11 | 1.02 | 0.846 | 0.879 | 0.981 | 1.11 |  | 1.12 | 1.03 | 0.904 | 0.754 | 0.814 | 0.909 | 0.201 |
| NCI-H322M | 0.926 | 0.923 | 1.05 | 1.07 | 0.871 | 1.03 | 0.818 | 0.906 | 0.983 | 0.841 | 0.969 | 0.848 | 0.879 | 0.875 | 0.895 | 1.01 |  | 0.97 | 0.77 | 1.13 | 0.831 |  | 1.11 | 0.838 |
| NCI-H358 | 0.899 | 0.933 | 1.05 | 1.15 | 0.815 | 0.954 | 0.675 | 0.924 | 0.956 | 0.807 | 1.04 | 0.985 | 0.988 | 0.888 | 0.857 | 0.93 | 1.04 | 1.07 | 1.05 | 1.09 | 0.775 | 0.829 | 1.07 | 0.451 |
| NCI-H441 | 1.05 | 1.08 | 1.25 | 1.12 | 0.995 | 1.11 | 0.828 | 1.3 | 0.985 | 1.02 | 1.27 | 1.23 | 0.971 | 1.1 | 1.1 | 0.977 | 1.08 | 0.938 | 1.05 | 1 | 0.87 | 0.812 | 0.99 | 0.713 |
| NCI-H460 | 0.994 | 1.05 | 1.14 | 1.09 | 0.959 | 1.04 | 0.838 | 0.926 | 0.995 | 1 | 1.13 | 0.918 | 0.935 | 1.08 | 0.971 | 0.993 | 1.01 | 1 | 0.989 | 1.01 | 0.859 | 0.86 | 1.02 | 0.592 |
| NCI-H520 | 0.962 | 1 | 0.965 | 0.763 | 0.306 | 1.14 | 0.924 | 0.801 | 1.15 | 0.95 | 1.2 | 1.12 | 0.906 | 0.997 | 1.08 | 1.06 | 0.98 | 1.02 | 0.955 | 1.09 | 0.722 | 0.678 | 0.817 | 0.163 |
| NCI-H522 | 1.11 | 1.05 | 0.914 | 0.96 | 0.907 | 0.839 | 0.957 | 0.904 | 0.867 | 0.888 | 1.01 | 0.798 | 0.908 | 0.967 | 1.09 | 0.992 | 0.889 | 1.21 | 0.984 | 0.888 | 0.804 | 0.921 | 0.886 | 0.279 |
| NCI-H596 | 0.973 | 1.06 | 0.992 | 0.915 | 0.858 | 0.842 | 1.01 | 1.07 | 1.12 | 0.947 | 1.08 | 1.04 | 0.916 | 0.979 | 0.999 | 0.984 | 0.916 | 1.02 | 0.939 | 0.981 | 0.875 | 0.857 | 1.14 | 0.224 |
| NCI-H647 | 0.94 | 1 | 1.04 | 1.1 | 0.903 | 0.964 | 0.83 | 0.887 | 0.993 | 0.937 | 1.2 | 1.02 | 0.855 | 1.01 | 0.911 | 0.918 | 0.867 | 1.05 | 0.986 | 1.11 | 0.824 | 0.783 | 1.04 | 0.762 |
| NCI-H650 | 0.836 | 0.926 | 1.19 | 0.983 | 0.888 | 1.02 | 0.792 | 0.988 | 0.912 | 0.979 | 0.857 | 1.01 | 0.76 | 1.1 | 0.909 | 1.07 |  | 1.08 | 0.884 | 1.24 |  | 0.913 | 1.03 | 0.128 |
| NCI-H661 | 1.06 | 1 | 1.03 | 1.09 | 0.993 | 1.01 | 0.912 | 0.951 | 0.987 | 0.996 | 1 | 0.948 | 0.942 | 0.951 | 0.965 | 1.01 | 0.98 | 0.991 | 0.969 | 1.03 | 0.917 | 0.991 | 1 | 0.957 |
| NCI-H727 | 0.985 | 0.978 | 0.94 | 1.07 | 0.882 | 0.847 | 0.872 | 0.966 | 1.01 | 0.908 | 1.08 | 0.758 | 0.899 | 0.924 | 0.91 | 0.858 | 0.874 | 0.888 | 0.958 | 1.01 | 0.865 | 0.625 | 0.615 | 0.331 |
